Assay results from patent EP0733365A2, “Use of benzoquinolin-3-ones for the treatment and prevention of prostatic cancer” (priority 1995, dated 1996).
“And” between values parts separate entries of the source, which are not always exact repeats. Identical values can stand only once.

What follows are compounds tested against T1, Type I 5α-reductase (Homo sapiens, UniProt P18405) (assay: Human Type I steroid 5α-reductase homogenate assay (conversion of [3H]-testosterone to [3H]-DHT and other 5α-reduced metabolites)). Settings: 0.3 µM concentration of compound, compared to control reaction mixtures.
T1 construct: Scalp punch biopsies from graft recipient sites were obtained; from tissue; host or cells: human scalp skin (punch biopsies from hair transplant procedures); 100,000 x g pellet of the homogenate
T1 sequence (P18405 1-259): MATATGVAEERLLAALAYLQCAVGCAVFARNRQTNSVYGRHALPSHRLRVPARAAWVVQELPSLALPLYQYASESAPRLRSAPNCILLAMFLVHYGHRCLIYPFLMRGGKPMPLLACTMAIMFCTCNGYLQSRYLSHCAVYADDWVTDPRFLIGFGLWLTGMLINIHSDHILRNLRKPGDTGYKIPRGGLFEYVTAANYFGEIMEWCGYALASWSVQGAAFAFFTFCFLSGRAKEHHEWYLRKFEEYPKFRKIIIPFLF
Assay type: biochemical
Protocol: Methodology of Human Type I Steroid 5α-Reductase Assays
Preparation of Type I 5α-Reductase from Human Scalp: Scalp punch biopsies from graft recipient sites were obtained, following the proper Informed Consent and Institutional Review Board guidelines, from human hair transplant procedures immediately after surgery and were frozen on dry ice and stored at -80°C. Approximately 60-75 punches from one surgical procedure were used to generate an enzyme preparation. The subcutaneous tissue was cut away and discarded. The skin was frozen with liquid nitrogen and pulverized to powder. The powder was homogenized in 30 mL of ice-cold buffer (20 mM Tris-HCl, pH 7.5) using a Brinkmann Polytron (Westbury, NY) with a PTA 10-S probe and a setting of 7. The homogenization procedure consisted of four 15 second pulses. Connective tissue was cleared from the probe with forceps between pulses. The homogenate was then filtered through cheese cloth and the filtrate centrifuged at 100,000 x g for one hour in a Beckman L8-60M ultracentrifuge. The pellet was resuspended by homogenization with a Dounce homogenizer using the same buffer solution. An aliquot was taken for protein determination by the Lowry method, Lowry, et al., Protein Measurement with the Folin Phenol Reagent, J. Biol. Chem., 193, 265-75 (1951). Aliquots of the enzyme preparation were stored at -80° until use. Human 5α-Reductase Homogenate Assay: This enzyme assay is based on the conversion of [^3H]-testosterone to [^3H]-5α -dihydrotestosterone (DHT) and other 5α-reduced metabolites. […] In a total volume of 1.0 mL, the Type I assay contained 2.6 µCi [^3H]-testosterone (50 nM), 500 µM of reduced nicotine adenine dinucleotide phosphate, 100 mM Tris-HCl, pH 7.5, (in Type II assays, 40 mM sodium acetate at pH 5.5 is used instead of Tris-HCl) and test compounds as indicated. Test compounds were added in 20 µL of dimethylsulfoxide (20 µL of dimethylsulfoxide was added to blanks and controls). The reaction was initiated by the addition of 0.5 mg of Type I 5α-reductase. The reaction mixture was incubated at 25° for 180 min, and terminated by the addition of 1 mL ice-cold stopping solution. The stopping solution contained 40 µM each of non-radioactive testosterone, DHT, androstenedione, androstanedione, androsterone, androstan-3β17β- diol, and androstan-3α,17β-diol. The samples were prepared for high performance liquid chromatography by solid phase extraction. Disposable solid matrix extraction columns (C-18 reversed phase, 6 mL, 500 mg; Bond Elut™ from Analytichem International; Harbor City, CA) were conditioned by washing with 5 mL of methanol followed by 5 mL of deionized water. The reaction mixtures were then applied to the columns. The columns were subsequently washed with 5 mL of acetone:water (1:4), followed by 0.3 mL of methanol. The samples were then eluted with 3 mL of methanol and collected in 20 mL scintillation vials. Three mL of water was then added to each scintillation vial. The solutions were then transferred to tubes and centrifuged for 30 min at 1000 x g to remove any particulate material before chromatography. The [^3H]-testosterone substrate and its metabolites were separated by chromatography using a C-18 reversed phase column (Beckman Ultrasphere 5µm spherical 80A pore, part no. 235329, 4.6 mm i.d. x […]) with an isocratic mobile phase (46 water: 46 methanol: 8 tetrahydrofuran by volume). The column temperature was maintained at 35° and the flow rate was 1.5 mL/min. A 400 µL aliquot was injected onto the column and radioactivity was determined using a Beckman 171 in-line flow radioisotope detector in conjunction with Rainin Dynamax™ software and a Macintosh computer. The flow rate of the Atomflow™ scintillation fluid was 4.5 mL / min.

Row | Compound | percent inhibition of Type I 5AR
1 | (+)-(4aR)-(10bR)-4-methyl-8-(2aR,4S-1-benzoyl-4-amino-2,2a,3,4-tetrahydrobenz[cd]-1H-indol-7-yl)-10b-methyl-1,2,3,4,4a,5,6,10b-octahydrobenzo[f]quinolin-3-one [Example 226] | 16%
2 | CN1C(=O)CC[C@]2(C)c3ccc(Sc4nc5c(ccc6ccccc65)s4)cc3CC[C@@H]12 [Example 163, (+)-(4aR)-(10bR)-4-methyl-8-(2-naphtho〈1,2-d〉-thiazolylthio)-10b-methyl-1,2,3,4,4a 5,6,10b-octahydrobenzo[f]-quinolin-3-one] | 80%
3 | (+)-(4aR)-(10bR)-4-methyl-8-(2-[6-benzyloxy]naphthyl)-10b-methyl-1,2,3,4,4a,5,6,10b-octahydrobenzo[f]quinolin-3-one [Example 62] | 45%
4 | (+)-(4aR)-(10bR)-4-methyl-8-(3-[1-benzyl-4-piperidinylcarboxamidolphenyl)-10b-methyl-1,2,3,4,4a,5,6,10b-octahydrobenzo[f]quinolin-3-one [Example 209] | 24%
5 | (+)-(4aR)-(10bR)-4-methyl-8-(4-fluoro-3-trifluoromethylphenyl)-10b-methyl-1,2,3,4,4a,5,6,10b-octahydrobenzo[f]quinolin-3-one [Example 46] | 3%
6 | (+)-(4aR)-(10bR)-4-methyl-8-benzyloxycarbonyl-10b-methyl-1,2,3,4,4a,5,6,10b-octahydrobenzo[f]quinolin-3-one [Example 144] | 90%
7 | (+)-(4aR)-(10bR)-4-methyl-8-(2aR,4S-1-benzoyl-4-dipropylamino-2,2a,3,4-tetrahydrobenz[cd]-1H-indol-7-yl)-10b-methyl-1,2,3,4,4a,5,6,10b-octahydrobenzo[f]quinolin-3-one [Example 225] | 47%
8 | CN1C(=O)CC[C@]2(C)c3ccc(-c4ccc(-c5ccc(NC(=O)C(C)(C)C)s5)cc4)cc3CC[C@@H]12 [Example 222, (+)-(4aR)-(10bR)-4-methyl-8-(4-[(2-t-butylcarbonylamino]-5-thienyl]phenyl)-10b-methyl-1,2,3,4,4a,5,6,10b-octahydrobenzo[f]quinolin-3-one] | 86%
9 | Cc1cccc2sc(Sc3ccc4c(c3)CC[C@H]3N(C)C(=O)CC[C@]43C)nc12 [Example 159, (+)-(4aR)-(10bR)-4-methyl-8-(4-methyl-2-benzothiazolylthio)-10b-methyl-1,2,3,4,4a,5,6,10b-octahydrobenzo[f]quinolin-3-one] | 87, 87%

Same assay, conditions: 0.3 µM concentration of compound, compared to control reaction mixtures; 0.3 µM

Row | Compound | percent inhibition of Type I 5AR
10 | CN1C(=O)CC[C@]2(C)c3ccc(CCc4ccccc4)cc3CC[C@@H]12 [Example 280, (4aR)-(10bR)-4,10b-dimethyl-8-(2-phenylethyl)-1,2,3,4,4a,5,6,10b-octahydrobenzo[f]quinolin-3-one] | 100%
11 | CN1C(=O)CC[C@]2(C)c3ccc(-c4ccc(Cl)cc4)cc3CC[C@@H]12 [Example 50, (+)-(4aR)-(10bR)-4-methyl-8-(4-chlorophenyl)-10b-methyl-1,2,3,4,4a,5,6,10b-octahydrobenzo[f]quinolin-3-one] | 94%
12 | CN1C(=O)CC[C@]2(C)c3ccc(-c4cccc5ccccc45)cc3CC[C@@H]12 [Example 53, (+)-(4aR)-(10bR)-4-methyl-8-(1-naphthyl)-10b-methyl-1,2,3,4,4a,5,6,10b-octahydrobenzo[f]quinolin-3-one] | 100% and 66%
13 | CN1C(=O)CC[C@]2(C)c3ccc(C=Cc4ccccc4)cc3CC[C@@H]12 [Example 285, (4aR)-(10bR)-4,10b-dimethyl-8-(2-phenylethenyl)-1,2,3,4,4a,5,6,10b-octahydrobenzo[f]quinolin-3-one] | 93%
14 | CN1C(=O)CC[C@]2(C)c3ccc(-c4cc(F)c(F)c(F)c4)cc3CC[C@@H]12 [Example 206, (+)-(4aR)-(10bR)-4-methyl-8-(3,4,5-trifluorophenyl)-10b-methyl-1,2,3,4,4a,5,6,10b-octahydrobenzo[f]quinolin-3-one] | 100%
15 | CN1C(=O)CC[C@]2(C)c3ccc(Sc4nc5c(Cl)cccc5s4)cc3CC[C@@H]12 [Example 164, (+)-(4aR)-(10bR)-4-methyl-8-(4-chloro-2-benzothiazolylthio)-10b-methyl-1,2,3,4,4a,5,6,10b-octahydrobenzo[f]quinolin-3-one] | 87%

Same assay, conditions: 0.3 µM concentration of compound, compared to control reaction mixtures; read-out: percent inhibition of Type I 5AR

Row | Compound | inhibition at 0.3 µM [%]
16 | CN1C(=O)CC[C@]2(C)c3ccc(/C=C/c4ccc5ccccc5n4)cc3CC[C@@H]12 [Example 283, (4aR)-(10bR)-4,10b-dimethyl-8-(2-[2-quinolinyl]ethenyl)-1,2,3,4,4a,5,6,10b-octahydrobenzo[f]quinolin-3-one] | 87
17 | CN1C(=O)CC[C@]2(C)c3ccc(/C=C/c4cnc5ccccc5c4)cc3CC[C@@H]12 [Example 282, (4aR)-(10bR)-4,10b-dimethyl-8-(2-[3-quinolinyl]ethenyl)-1,2,3,4,4a,5,6,10b-octahydrobenzo[f]quinolin-3-one] | 75
18 | CN1C(=O)CC[C@]2(C)c3ccc(-c4ccc5c(c4)CCC5O)cc3CC[C@@H]12 (single isomer, unassigned; (+)) [Example 245] | 54
19 | CN1C(=O)CC[C@]2(C)c3ccc(-c4ccc(NS(C)(=O)=O)cc4)cc3CC[C@@H]12 [Example 123, (+)-(4aR)-(10bR)-4-methyl-8-(4-methylsulfonamidophenyl)-10b-methyl-1,2,3,4,4a,5,6,10b-octahydrobenzo[f]quinolin-3-one] | 10
20 | CN1C(=O)CC[C@]2(C)c3ccc(/C=C/c4cncc5ccccc45)cc3CC[C@@H]12 [Example 281, (4aR)-(10bR)-4,10b-dimethyl-8-(2-[4-isoquinolinyl]ethenyl)-1,2,3,4,4a,5,6,10b-octahydrobenzo[f]quinolin-3-one] | 75
21 | C[C@]12C=CC(=O)N[C@@H]1CCc1cc(-c3cc4ccccc4cn3)ccc12 [Example 142, (+)-(4aR)-(10bR)-8-(3-isoquinolinyl)-10b-methyl-3,4,4a,5,6,10b-hexahydrobenzo[f]quinolin-3-one] | 22
22 | C[C@]12CCC(=O)N[C@@H]1CCc1cc(Sc3ccccc3Cl)ccc12 (single isomer, unassigned) [Example 7] | 49
23 | C[C@]12CCC(=O)N[C@@H]1CCc1cc(-c3cnc4ccccc4c3)ccc12 (single isomer, unassigned) [Example 45] | 11
24 | Cc1cccc2sc(Sc3ccc4c(c3)CC[C@H]3N(C)C(=O)CC[C@]43C)nc12 [Example 159, (+)-(4aR)-(10bR)-4-methyl-8-(4-methyl-2-benzothiazolylthio)-10b-methyl-1,2,3,4,4a,5,6,10b-octahydrobenzo[f]quinolin-3-one] | 87

Same assay, conditions: read-out: percent inhibition of Type I 5AR, 0.3 µM concentration of compound, compared to control reaction mixtures

Row | Compound | inhibition at 0.3 µM [%]
25 | CN1C(=O)CC[C@]2(C)c3ccc(C=Cc4ccccc4)cc3CC[C@@H]12 [Example 279, (4aR)-(10bR)-4,10b-dimethyl-8-(2-phenylethenyl)-1,2,3,4,4a,5,6,10b-octahydrobenzo[f]quinolin-3-one] | 85
